Where no end group is shown, it is not given here.
What was measured:
chymotrypsin [1] = molecular target: T1, chymotrypsin (Bos taurus, UniProt P00766); assay: Chymotrypsin inhibitory assay; type: biochemical; conditions: up to the concentration of 100 μg/mL
trypsin [2] = molecular target: T2, trypsin (Sus scrofa, UniProt P00761); assay: Trypsin inhibitory assay; type: biochemical; conditions: up to the concentration of 100 μg/mL
proteinase K = proteinase K (Parengyodontium album, UniProt P06873); assay: Proteolytic and thermal stability against proteinase K; type: in vitro ADME; conditions: proteinase K from Tritirachium album; 50 °C, up to 48 h
Sequence of proteinase K (P06873 106-384): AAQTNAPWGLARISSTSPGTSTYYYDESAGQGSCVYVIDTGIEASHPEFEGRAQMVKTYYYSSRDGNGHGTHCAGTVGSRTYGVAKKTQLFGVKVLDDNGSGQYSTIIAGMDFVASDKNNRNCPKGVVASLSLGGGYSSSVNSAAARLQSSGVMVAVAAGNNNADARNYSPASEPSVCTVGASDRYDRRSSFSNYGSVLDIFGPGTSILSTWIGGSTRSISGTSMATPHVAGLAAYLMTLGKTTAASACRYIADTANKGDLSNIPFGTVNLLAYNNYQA

thermolysin = molecular target: T3, thermolysin (Bacillus thermoproteolyticus, UniProt P00800); assay: Proteolytic and thermal stability against thermolysin; type: in vitro ADME; conditions: thermolysin from Bacillus thermoproteolyticus Rokko; 65 °C, up to 12 h
T3 sequence (P00800 233-548): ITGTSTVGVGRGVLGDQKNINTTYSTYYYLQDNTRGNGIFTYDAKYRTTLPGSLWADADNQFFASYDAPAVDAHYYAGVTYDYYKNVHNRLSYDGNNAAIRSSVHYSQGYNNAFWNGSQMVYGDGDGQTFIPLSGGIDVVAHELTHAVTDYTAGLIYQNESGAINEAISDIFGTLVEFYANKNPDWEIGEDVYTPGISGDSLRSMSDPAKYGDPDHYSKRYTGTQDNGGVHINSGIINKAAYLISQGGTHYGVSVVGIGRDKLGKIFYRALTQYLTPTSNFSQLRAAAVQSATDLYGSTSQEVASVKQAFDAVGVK

mice = assay: Toxicity and behavior in mice; type: in vivo; conditions: i.p. 40 μg/g
chicks = assay: Toxicity and behavior in chicks; type: in vivo; conditions: i.c.v. 60 μg/g
[3] = system: murine cerebrocortical neuron cells; assay: Veratridine-induced neuronal Ca2+ influx; type: cell-based; conditions: data not shown
[4] = Solubility in water or low pH buffers; conditions: pure water or low pH buffers
pepsin = pepsin (Sus scrofa, UniProt P00791); conditions: cited from earlier work
Sequence of pepsin (P00791 60-385): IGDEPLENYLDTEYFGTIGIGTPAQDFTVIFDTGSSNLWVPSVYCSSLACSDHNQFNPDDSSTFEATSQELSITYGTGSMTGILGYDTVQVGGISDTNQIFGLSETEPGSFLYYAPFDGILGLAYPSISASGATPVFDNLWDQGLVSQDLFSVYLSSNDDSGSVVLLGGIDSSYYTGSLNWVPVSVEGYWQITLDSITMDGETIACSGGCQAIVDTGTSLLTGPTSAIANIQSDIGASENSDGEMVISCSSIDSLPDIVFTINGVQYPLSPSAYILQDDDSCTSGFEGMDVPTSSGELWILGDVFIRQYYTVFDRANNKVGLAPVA

trypsin [5] = molecular target: T2, trypsin; conditions: cited from earlier work
chymotrypsin [6] = molecular target: T1, chymotrypsin; conditions: cited from earlier work

T2 sequence (P00761 9-231): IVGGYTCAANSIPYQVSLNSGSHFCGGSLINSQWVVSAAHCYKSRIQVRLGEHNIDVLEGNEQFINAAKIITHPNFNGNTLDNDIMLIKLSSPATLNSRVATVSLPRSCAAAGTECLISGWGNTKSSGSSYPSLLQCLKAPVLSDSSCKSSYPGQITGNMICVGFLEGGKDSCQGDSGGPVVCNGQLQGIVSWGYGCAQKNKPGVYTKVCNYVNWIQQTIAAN

Substance | effect in chymotrypsin inhibitory assay (chymotrypsin [1]) | effect in trypsin inhibitory assay (trypsin [2]) | proteolytic and thermal stability against proteinase K (proteinase K) | proteolytic and thermal stability against thermolysin (thermolysin) | toxic effects or behavior changes in mice (mice) | toxic effects or behavior changes in chicks (chicks) | effect on neuronal Ca2+ influx [3] | solubility [4] | stability towards pepsin (pepsin) | stability towards trypsin (trypsin [5]) | stability towards chymotrypsin (chymotrypsin [6]) | stability to trypsin (trypsin [5])
asteropsin A [ASPA] | no effects | no effects | exceptional proteolytic and thermal stability | exceptional proteolytic and thermal stability | no toxic effects or behavior changes | no toxic effects or behavior changes | – | – | – | – | – | –
asteropsin C [ASPC] | no effects | no effects | exceptional proteolytic and thermal stability | – | no toxic effects or behavior changes | no toxic effects or behavior changes | no effect | virtually insoluble | – | – | – | –
kalata B1 (GLPVCGETCVGGTCNTPGCTCSWPVCTRN; not fully specified; ends and bridges not checked; UniProt P56254 89-117, looked up) | – | – | – | – | – | – | – | – | exhibits stability | exhibits stability | exhibits stability | –
ω-conotoxin MVIIA [ziconotide] | – | – | – | – | – | – | – | – | – | – | – | unstable
